Reference: patent publication US20180147171A1, “TRANS10:CIS12 ISOMER OF CONJUGATED LINOLEIC ACID AS A THERAPEUTIC AND PREVENTATIVE AGENT FOR HYPERTENSION SPECIFIC TO PREGNANCY” (Wisconsin Alumni Research Foundation, priority 2012, published 2018)

Legend:
[1] = test system: CX43; assay: Phosphorylation of CX43 at specific inhibitory sites in VEGF-treated uterine artery endothelial cells; assay type: cell-based, sheep; conditions: cultured uterine artery endothelial cells from pregnant animals, VEGF inhibited, with rescue agent
[2] = test system: ovine uterine artery endothelial cells from pregnant sheep (P-UAEC); assay: Fura-2 [Ca2+]i imaging: ATP stimulated Ca2+ burst number after VEGF pretreatment, with or without rescue agent; assay type: cell-based; conditions: for rescue from VEGF165 mediated inhibition of subsequent ATP stimulated Ca2+ bursts: rescue agent 10 uM added right before VEGF165 10 ng/ml, second ATP 100 uM response as % of first; for rescue from VEGF165 mediated inhibition of subsequent ATP stimulated Ca2+ bursts / CLA rescue of VEGF inhibitory effects on subsequent ATP burst number: 30 min; for CLA rescue of VEGF inhibitory effects on subsequent ATP burst number: t10:c12 CLA 50 uM added before VEGF165 10 ng/ml, compared with PP2 10 uM
From the text: Studies in ovine uterine artery endothelial cells from pregnant sheep (P-UAEC). P-UAEC are a well-established cell model of endothelial cells isolated from uterine arteries and maintained in culture to passage 3 before freezing for future use.
Isolation of UAECs: Uterine arteries were obtained from Polypay and mixed Western breed nonpregnant sheep (n=4) and pregnant ewes (n=6) at 120-130 days of gestation during nonsurvival surgery, as described in the art. Procedures for animal handling and protocols for experimental procedures were approved by the University of Wisconsin-Madison Research Animal Care Committees of both the School of Medicine and Public Health and the College of Agriculture and Life Sciences and follow the recommended American Veterinary Medicine Association guidelines for humane treatment and euthanasia of laboratory farm animals.
Fura-2 [Ca^2+]i Imaging Studies: Uterine artery endothelial cells plated to 35-mm dishes with glass coverslip windows (MatTek Corp.) were grown to the required density (20%-100%, as described) and then loaded with 5 μM Fura-2 AM in Krebs buffer (125 mM NaCl, 5 mM KCl, 1 mM MgSO4, 1 mM KH2PO4, 6 mM glucose, 2 mM CaCl2, and 25 mM HEPES, pH 7.4) for 45 min. After rinsing and incubating a further 30 min to complete ester hydrolysis, Fura-2 loading was verified by viewing at 380-nm ultraviolet excitation on a Nikon inverted microscope (TS100; Melville, N.Y.). About 60 cells were then preselected and video recordings commenced using alternate excitation at 340 and 380 nm at 1-sec intervals and measuring emitted light using a digital camera. From the ratio of emission at 510 nm detected at the two excitation wavelengths, and by comparison to a standard curve established for the same settings using buffers of known free Ca^2+ concentration, the [Ca^2+]i was then calculated for individual cells in real time using InCyt Im2 software (Intracellular Imaging Inc., Cincinnati, Ohio).
Data in graphs is calculated comparing the cells repeated burst patterns before and after repeat treatment. ATP 100 μM 30 min followed by ATP 100 uM 30 min gives a marginal decline in number of Ca^2+ bursts (as defined in the art). However other agents activating protein kinases such as ERK and Src cause closure of CX43 and so loss of associated bursts. Therefore to perform the analysis, ATP stimulation is performed once to establish an uninhibited response for each cell. Then the inhibitory treatment under study is given (VEGF, 10 ng/ml or equivalent). After 30 minutes the second ATP treatment begins and burst response is expressed as % of the first ATP response. To then further test the protective or rescue effect of kinase inhibitors we follow the same protocol but add the rescue agent right before the VEGF. U0126 is an MEK/ERK pathway blocked, PP2 is a Src pathway blocker, and CLA is the test compound.

[3] = test system: ERK and Src signaling; conditions: cancer cells; earlier finding; cited from earlier work

Compound	phosphorylation of CX43 at specific inhibitory sites [1]	rescue from VEGF165 mediated inhibition of subsequent ATP stimulated Ca2+ bursts ([2]; FIG. 3)	CLA rescue of VEGF inhibitory effects on subsequent ATP burst number ([2]; FIG. 4)	also measured
N#CC(=C(/N)Sc1ccccc1N)/C(C#N)=C(\N)Sc1ccccc1N [U0126]	reversal of the phosphorylation of CX43	can rescue the cells	–	–
VEGF	–	–	–	effect of factor pretreatment on subsequent ATP stimulated Ca2+ bursts ([2]; 30 min pretreatment, 10 ng/ml, FIG. 3): inhibitory effects
CCCCC/C=C\C=C\CCCCCCCCC(=O)O [t10:c12 CLA, t10:c12 conjugated linoleic acid]	–	–	can achieve the same rescue effect as PP2	inhibition of ERK and Src kinase signaling pathways [3]: can inhibit these pathways; CLA rescue of VEGF inhibitory effects on subsequent ATP burst number ([2]; FIG. 4, listed as CLA): improvement of function beyond rescue
CCCCCC/C=C/C=C\CCCCCCCC(=O)O [c9:t11 CLA]	–	–	have not achieved rescue	–
CC(C)(C)n1nc(-c2ccc(Cl)cc2)c2c(N)ncnc21 [PP2]	reversal of the phosphorylation of CX43	can rescue the cells	–	–
